According to patent US10745735B2 (priority 2013, dated 2020):

Assays:
[1] = system: verotoxin producing E. coli (VTEC) cells; type: cell-based
BL21 E. coli [2] = experiment: Capture of HPG-labeled, biotin-azide reacted E. coli on streptavidin-coated magnetic beads; type: cell-based; conditions: biotin-azide 100 μM, M280 Dynabeads 1 hour
From the text: (§1) FIG. 6: Capture via unnatural amino acid metabolic labeling of live gram negative (E. coli) and gram positive (L. innocua) bacteria.
(§2) E. coli and L. innocua cells metabolically labeled by HPG were further investigated to determine if they could be captured on a surface via the incorporated amino acid analogue.

[3] = system: Listeria innocua strains HPB 34 and 118; experiment: Metabolic labeling of Listeria innocua with HPG, Alexa488-azide, fluorescence microscopy; type: cell-based; conditions: HPG 100 μg/ml, HTM minimal medium, 16 h at 30° C.
Method: In addition to gram negative E. coli strains, gram positive Listeria strains were investigated to probe the diversity of bacteria susceptible to this labeling strategy. Two strains of Listeria innocua were cultured in HTM minimal medium containing the methionine biosynthesis inhibition amino acids, in the presence of methionine (100 μg/ml) or HPG (100 μg/ml) for 16 h at 30° C., then reacted with Alexa488-azide as described earlier.

L. innocua = experiment: Capture of HPG-labeled, biotin-azide reacted L. innocua on streptavidin-coated magnetic beads; type: cell-based, Listeria innocua; conditions: biotin-azide 100 μM, M280 Dynabeads 1 hour
From the text: as §1, §2

K12 E. coli = experiment: Immunocapture with anti-E. coli antibody beads and HPG metabolic labeling of K12 E. coli; type: cell-based; conditions: 30 minutes in M9 media, anti-E. coli antibody beads, Alexa488-azide
Method: FIG. 11: Metabolic label incorporation, immunocapture and fluorescence identification of live K12 strain E. coli. […] M280 streptavidin-coated magnetic beads treated with PBS (“Untreated”) or PBS containing biotin-tagged Anti-E. coli antibody were then added to the culture for 1 hour before the beads were washed in PBS and reacted with Alexa488-azide to fluorescently label surface proteins. Fluorescence levels are adjusted above background detected for cells grown in the presence of methionine.
Metabolic labeling is compatible with strain-specific immunocapture using magnetic beads coated with antibodies directed to specific bacteria. This method has the potential to concentrate specific strains of bacteria from food or water samples, while simultaneously allowing bacteria to acquire the functionalized biomolecular precursor and incorporate it in target biomolecules. Captured bacteria are then identified as living or dead by a subsequent bioorthogonal reaction and detection by fluorescence microscopy. […] M280 magnetic beads treated with PBS or biotin-tagged anti-E. coli antibody were co-incubated with the E. coli. Bacteria/bead aggregates were washed in PBS, then reacted with Alexa488-azide to fluorescently identify living bacteria captured on the M280 magnetic beads.

BL21 E. coli [4] = experiment: Dual metabolic labeling (HPG and KDO-azide) of BL21 E. coli, fluorescence and bead capture; type: cell-based; conditions: HPG and KDO-azide together
Method: FIG. 10: Dual metabolic label incorporation, fluorescence labeling and capture of live lab strain E. coli. […] The cells were first reacted with biotin-azide to biotinylate surface proteins, then reacted with Alexa488-alkyne to fluorescently label LPS molecules. Surface biotinylation was either fluorescently detected after incubation with Cy3-streptavidin (top panels), or bacteria were captured after incubation with streptavidin-coated magnetic beads (bottom panels). Fluorescence levels are adjusted above background detected for cells grown in the presence of KDO and methionine.
Beyond identification of living cells, this method has the potential to discriminate between gram positive and gram negative bacteria as functionalized KDO will only be incorporated into LPS of gram negative cells, whereas HPG should not discriminate between the two. This method may also be used to capture living bacteria via incorporation of HPG, and fluorescent identification of gram negative strains via incorporation of KDO-azide. […] Methionine biosynthesis was then inhibited and either methionine or HPG were added to the cultures and incubated for 16 hours. Cells were reacted with biotin-azide to label surface proteins containing HPG, then reacted with Alexa488-alkyne to fluorescently label LPS containing KDO-azide. […]

[5] = system: VTEC strain of serotype O45:H2; experiment: Metabolic labeling of VTEC O45:H2 with KDO-alkyne, Alexa488-azide, fluorescence microscopy; type: cell-based, E. coli; conditions: overnight culture
From the text: Metabolic labeling of VTEC was also investigated to determine if this labeling strategy could be applied to the detection of live pathogenic bacteria. […] Therefore, targeting LPS of bacteria with a KDO analogue can also be used to identify contamination by living pathogenic strains of E. coli.

Compound	contact time after which metabolic label incorporation is detected [1]	fluorescence labeling after reaction with Alexa488-azide [1]	capture on streptavidin coated beads via incorporated HPG (BL21 E. coli [2])	fluorescence labeling after reaction with Alexa488-azide [3]	capture on streptavidin coated beads via incorporated HPG (L. innocua)	identification of captured bacteria as living by fluorescence (K12 E. coli)	dual metabolic label incorporation (BL21 E. coli [4])	incorporation into LPS molecules [5]
C#CCCC(N)C(=O)O (stereo not drawn) [HPG, homopropargylglycine]	30 min	fluorescently labeled	multiple E. coli and L. innocua cells bound to the streptavidin coated beads	labeled efficiently	multiple E. coli and L. innocua cells bound to the streptavidin coated beads	identified as being alive	capable of incorporating both	
[N-]=[N+]=NC[C@@H](O)C1OC(O)(C(=O)O)C[C@@H](O)[C@H]1O (stereo partly drawn) [KDO-azide]							capable of incorporating both	
C#CCCC(=O)NC[C@@H](O)C1OC(O)(C(=O)O)C[C@@H](O)[C@H]1O (stereo partly drawn) [KDO-alkyne]								capable of incorporating KDO-alkyne into LPS molecules
